The text below walks through data of US12221406B2, “Compounds as NLRP3 inflammasome inhibitors and compositions and uses thereof” (VIRGINIA COMMONWEALTH UNIVERSITY, priority 2019, dated 2025).

Data set [1] deals with T1, NLRC4 inflammasome (Mus musculus, UniProt Q3UP24).
T1 construct: endogenous in cells; host or cells: J774A.1 murine macrophage cell line (LPS + transfected flagellin)
As to the kind of experiment: NLRC4 inflammasome assay in J774A.1 cells (LPS/flagellin, IL-1β ELISA). It counts as cell-based, murine. The note with it: compound 10 μM. The method, then:
(§1) J774A.1 cells were plated into a 96-well plate. […] Cells were treated with LPS (1 μg/mL) and test compounds for 1 h. Flagellin or poly-deoxyadenylic-deoxythymidylic acid sodium salt (Poly(dA:dT)) was used to induce the formation of the NLRC4 and the AIM2 inflammasomes.
(In general: ELISA stands for enzyme-linked immunosorbent assay.)

Data set [2] deals with T2, AIM2 inflammasome (Mus musculus, UniProt Q91VJ1).
T2 construct: endogenous in cells; host or cells: J774A.1 murine macrophage cell line (LPS + Poly(dA:dT))
T2 sequence (Q91VJ1 1-354): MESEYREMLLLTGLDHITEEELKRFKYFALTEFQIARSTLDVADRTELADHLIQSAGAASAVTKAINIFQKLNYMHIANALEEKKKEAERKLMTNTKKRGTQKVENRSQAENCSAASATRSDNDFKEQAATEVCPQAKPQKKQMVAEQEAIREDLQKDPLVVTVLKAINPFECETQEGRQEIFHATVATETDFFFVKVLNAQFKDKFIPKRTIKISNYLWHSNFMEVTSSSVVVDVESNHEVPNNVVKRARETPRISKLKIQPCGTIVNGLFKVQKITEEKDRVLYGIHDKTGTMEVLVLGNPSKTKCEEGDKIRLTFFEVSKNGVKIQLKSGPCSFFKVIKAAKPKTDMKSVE
Kind of data set: AIM2 inflammasome assay in J774A.1 cells (LPS/Poly(dA:dT), IL-1β ELISA). It counts as cell-based, murine. The note with it: compound 10 μM. The method, then:
as §1

Data set [3] concerns hCMEC/D3 cells. Kind of data set: Cytotoxicity on hCMEC/D3 cells (Live/Dead kit). It counts as cell-based, human. The following applies: 20 μM, 2 h.
Data set [4] in a line: In vivo BBB penetration in mice, plasma and brain by LC-MS/MS. On the set-up: species or system C57BL/6 mice. The note with it: PO 20 mg/kg. How it is done:
(§2) […]. […] […]. Plasma samples ([…]) were collected at 0.08, 0.17, 0.25, 0.5, 0.75, 1.0, 2.0, 4.0, 8.0, 12.0, and 24.0 h time points through orbital vein and were stored in −80° C. freezer for later analysis.
(§3) Samples were mixed by vortexing for 30 seconds. […] […]. […] […].

Data set [5] in a line: PK study in rats, IV and PO, plasma by LC-MS/MS. It counts as in vivo, Sprague-Dawley rats. The method, then: as §2, §3

As for `C#CCNS(=O)(=O)c1ccc(CCN(Cc2cc(Cl)ccc2OCCC)C(=O)Cc2ccsc2)cc1` [SZ-N3I-45, N-(5-chloro-2-propoxybenzyl)-N-(4-(N-(prop-2-yn-1-yl)sulfamoyl)phenethyl)-2-(thio-phen-3-yl)acetamide], in data set [1], the “effect on IL-1β production by NLRC4 inflammasome” value is “did not significantly interfere”. Also, in data set [2], the “effect on IL-1β production by AIM2 inflammasome” value was “did not significantly interfere”. Also, the “cytotoxicity on hCMEC/D3 cells” value in data set [3] was “did not show significant toxic effects”. The plasma concentration in data set [4] (0.5 hours) worked out at 277.33 ± 182.15 ng/mL. The “brain concentration after approximate conversion” value in data set [4] (4 h) is recorded as “around 12 nM”. In addition, in data set [5] (20 mg/kg PO vs IV), the “oral bioavailability (Foral)” value amounted to 10%. Besides, in data set [5] (IV 20 mg/kg), the “steady-state volume of distribution (Vdss)” value is 8.5 L/kg, the “terminal plasma half-life (t½)” value is 6.6 h and the “total clearance (CLtot)” value is recorded as 41 mL/min/kg. In data set [5] (PO 20 mg/kg), this molecule had a cmax of 73 ng/mL and a tmax of 12 h.
